The target in experiment [1] is T1, hSSTR2 (Homo sapiens, UniProt P30874).
T1 construct: host or cells: 'Cells expressing hSSTR2'
Put plainly: Somatostatin receptor radioligand binding assay (hSSTR2).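 Further: radioligand displacement on membranes of CHO-K1 cells stably transfected with human SSTR2, specific binding taken as total minus binding left with 1000 nM SRIF-14.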
Method: (§5) The affinities of a test compound for the human somatostatin receptors were determined by radioligand binding assays in CHO-K1 cells stably transfected with each of the human somatostatin receptor subtypes, hSSTR1-5. […] Clonal cell lines stably expressing each of the somatostatin receptors were obtained by transfection into CHO-K1 cells (ATCC) and subsequently selected with culture media containing 0.8 mg/mL of G418 (Life Technologies).
(§6) Membranes for in vitro receptor binding assays were obtained by the following procedures. […] The supernatant containing the plasma membranes was centrifuged at 100,000 x g for 30 minutes and the pellet was resuspended in buffer containing 20 mM glycine-glycine, 1 mM MgCl2, 250 mM sucrose, pH 7.2, for storage at -80°C.
(§7) For the SSTR1, 2 and 5 assays, membranes and various concentrations of test compounds were incubated in 96-well plates for 60 minutes at 25°C with 0.05 nM [^125I-Tyr^11]-SRIF-14 (for hSSTR1; PerkinElmer Life Science), 0.05 nM [^125I-Tyr]-seglitide (for hSSTR2; PerkinElmer Life Science) or 0.05 nM [^125I-Tyr]-[DPhe-cyclo(Cys-Tyr-DTrp-Lys-Val-Cys)-Thr-NH2] (for hSSTR5; PerkinElmer Life Science) in 50 mM HEPES, 0.2% BSA, 0.1 mM MgCl2, pH 7.5.

The target in another experiment is T2, hSSTR3 (Homo sapiens, UniProt P32745).
T2 construct: expressed in transfected cells; host or cells: CHO-K1 (ATCC), pcDNA3.1, G418-selected clonal line; membranes
Put plainly: Somatostatin receptor radioligand binding assay (hSSTR3). The note with it: CHO-K1 cell membranes; 0.05 nM [125I-Tyr11]-SRIF-14; 60 minutes at 25°C; read-out: hSSTR3 Ki (nM) ± SEM. The protocol: (§1) The affinities of a test compound for the human somatostatin receptors were determined by radioligand binding assays in CHO-K1 cells stably transfected with each of the human somatostatin receptor subtypes, hSSTR1-5. The cDNA coding sequences of hSSTR1 (GenBank accession No. NM_001049.1), hSSTR2 (GenBank accession No. XM_012697.1), hSSTR3 (GenBank accession No. XM_009963.1), hSSTR4 (GenBank accession No. NM_001052.1), and hSSTR5 (GenBank accession No. XM_012565.1) were subcloned into the mammalian expression vector pcDNA3.1 (Life Technologies). Clonal cell lines stably expressing each of the somatostatin receptors were obtained by transfection into CHO-K1 cells (ATCC) and subsequently selected with culture media containing 0.8 mg/mL of G418 (Life Technologies).
(§2) Membranes for in vitro receptor binding assays were obtained by the following procedures. CHO-K1 cells expressing one of the somatostatin receptors were homogenized in ice-cold buffer with 10 mM Tris-HCl, 5 mM EDTA, 3 mM EGTA, 1 mM phenylmethylsuphonyl fluoride, pH 7.6, using Polytron PT10-35GT (Kinematica) at 18,000 rpm for 30 seconds and centrifuged at 500 x g for 10 minutes. The supernatant containing the plasma membranes was centrifuged at 100,000 x g for 30 minutes and the pellet was resuspended in buffer containing 20 mM glycine-glycine, 1 mM MgCl2, 250 mM sucrose, pH 7.2, for storage at -80°C.
(§3) For the hSSTR3 and 4 assays, membranes and various concentrations of test compounds were incubated in 96-well plates for 60 minutes at 25°C with 0.05 nM [^125I-Tyr^11]-SRIF-14 (PerkinElmer Life Science) in 50 mM HEPES, 0.2% BSA, 5 mM MgCl2, 200 KIU/mL trasylol, 0.02 mg/mL bacitracin, and 0.02 mg/mL phenylmethylsuphonyl fluoride, pH 7.5.
(§4) The incubations were terminated by rapid filtration through GF/C glass microfiber filter plates (pre-wet with 0.3% polyethyleneimine and 0.1 % BSA) using a 96-well cell harvester (Brandel). Plates were washed six times with 1 mL/well aliquots of ice-cold buffer containing 50 mM Tris buffer, pH 7.7. Specific binding was defined as the total radioligand bound minus the bound in the presence of 1000 nM SRIF-14.

In the next experiment the target is T3, hSSTR4 (Homo sapiens, UniProt P31391).
T3 construct: expressed in transfected cells; host or cells: CHO-K1 (ATCC), pcDNA3.1, G418-selected clonal line; membranes
Put plainly: Somatostatin receptor radioligand binding assay (hSSTR4). The conditions noted are these: CHO-K1 cell membranes; 0.05 nM [125I-Tyr11]-SRIF-14; 60 minutes at 25°C; read-out: hSSTR4 Ki (nM) ± SEM. The protocol:
as §1, §2, §3, §4

The target in the next experiment is T4, hSSTR5 (Homo sapiens, UniProt P35346).
T4 construct: expressed in transfected cells; host or cells: CHO-K1 (ATCC), pcDNA3.1, G418-selected clonal line; membranes
Put plainly: Somatostatin receptor radioligand binding assay (hSSTR5). The conditions noted are these: CHO-K1 cell membranes; 0.05 nM [125I-Tyr]-[DPhe-cyclo(Cys-Tyr-DTrp-Lys-Val-Cys)-Thr-NH2]; 60 minutes at 25°C; read-out: hSSTR5 Ki (nM) ± SEM.

Experiment [2] deals with T5, hDRD2 (Homo sapiens, UniProt P14416). Put plainly: cell-based. Also on record: host or cells: 'Cells expressing hDRD2'. The conditions noted are these: for Emax: read-out: hDRD2 %Emax ± SEM.
Method: (§8) The ability of select compounds according to the present invention to activate hSSTR2 and hDRD2 was determined by the intracellular calcium mobilization assay using FLIPR Calcium 4 assay kit (Molecular Devices).
(§9) Cells expressing hSSTR2 or hDRD2 were plated in 384-well microplates in tissue culture media and incubated for 16-24 hours at 37°C in a humidified atmosphere with 5% CO2. Medium was replaced by loading buffer containing Hank's buffered saline, 20 mM HEPES, 2.5 mM probenecid and Calcium 4 dye, and the plates were incubated at 37°C for 60 minutes.
Experiment [3] concerns the target T5, hDRD2. Put plainly: biochemical. Also on record: expressed in transfected cells; host or cells: CHO-K1, pcDNA3.1/GS, zeocin-selected clonal line; membranes. Format: binding.
The target in a further experiment is T6, hSSTR1 (Homo sapiens, UniProt P30872).
T6 construct: expressed in transfected cells; host or cells: CHO-K1 (ATCC), pcDNA3.1, G418-selected clonal line; membranes
Put plainly: Somatostatin receptor radioligand binding assay (hSSTR1).

Experiment [4] deals with T1, hSSTR2. The experiment in a line: Intracellular calcium mobilization assay (FLIPR Calcium 4), hSSTR2.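 Further: agonist activity measured in cells expressing hSSTR2, seeded in 384-well plates, loaded with Calcium 4 dye, read-out as rise in intracellular calcium.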 Format: cell-based.
Method: as §8, §9
Setting [5] is: CHO-K1 cell membranes, 0.05 nM [125I-Tyr]-seglitide, 60 minutes at 25°C, read-out: hSSTR2 Ki (nM) ± SEM.
The mark [6] stands for this setting: CHO-K1 cell membranes, […] [3H]-spiperone, 60 minutes at 25°C, read-out: hDRD2 Ki (nM) ± SEM.
Setting [7] is: CHO-K1 cell membranes, 0.05 nM [125I-Tyr11]-SRIF-14, 60 minutes at 25°C, read-out: hSSTR1 Ki (nM) ± SEM.

Structures are written as SMILES. Read-outs that look alike come from different tables or passages of the source. Numbered stars: 1 amine (or outer) side, 2 acyl side, 3 side chain; on linkers, the order of the positions; unused ones are H or OH. Bridge positions count the residues as written; N and C are the ends. Square brackets hold non-standard residues; d marks the D form. Peptide text beside a SMILES is read from it. X1 = CN1C[C@H](CSCCN(CCSC[C@@H]2C[C@@H]3c4cccc5[nH]cc(c45)C[C@H]3N(C)C2)[C@H](CCCCN[*:2])C(=O)[*:1])C[C@@H]2c3cccc4[nH]cc(c34)C[C@H]21; 4Pal = N[C@@H](Cc1ccncc1)C(=O)O
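Wherever Emax is given: agonist activity at human DRD2 in DRD2-expressing cells, read as intracellular calcium mobilization with a FLIPR Calcium 4 fluorescent dye.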

T6 sequence (P30872 whole entry): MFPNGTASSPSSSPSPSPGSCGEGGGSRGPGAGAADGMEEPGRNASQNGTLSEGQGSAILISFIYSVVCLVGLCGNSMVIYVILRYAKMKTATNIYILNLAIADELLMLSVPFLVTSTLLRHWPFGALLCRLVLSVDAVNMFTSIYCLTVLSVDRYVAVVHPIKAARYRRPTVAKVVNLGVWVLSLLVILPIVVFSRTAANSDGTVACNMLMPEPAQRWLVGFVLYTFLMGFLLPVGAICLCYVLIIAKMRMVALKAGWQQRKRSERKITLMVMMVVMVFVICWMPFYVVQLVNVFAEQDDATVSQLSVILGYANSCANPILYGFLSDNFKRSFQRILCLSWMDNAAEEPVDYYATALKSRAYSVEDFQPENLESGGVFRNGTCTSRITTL
T2 sequence (P32745 whole entry): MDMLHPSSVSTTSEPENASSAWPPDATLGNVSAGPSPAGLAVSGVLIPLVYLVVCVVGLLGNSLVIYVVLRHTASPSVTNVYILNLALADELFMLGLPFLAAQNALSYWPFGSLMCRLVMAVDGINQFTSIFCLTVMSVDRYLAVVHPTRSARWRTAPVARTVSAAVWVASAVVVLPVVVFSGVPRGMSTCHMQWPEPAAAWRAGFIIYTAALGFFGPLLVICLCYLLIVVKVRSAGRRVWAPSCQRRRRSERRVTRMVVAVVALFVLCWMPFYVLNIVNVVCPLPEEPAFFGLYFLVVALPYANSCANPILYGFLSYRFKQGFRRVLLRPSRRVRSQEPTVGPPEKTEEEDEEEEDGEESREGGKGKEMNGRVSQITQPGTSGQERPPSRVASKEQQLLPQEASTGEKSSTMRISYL
T5 sequence (P14416 whole entry): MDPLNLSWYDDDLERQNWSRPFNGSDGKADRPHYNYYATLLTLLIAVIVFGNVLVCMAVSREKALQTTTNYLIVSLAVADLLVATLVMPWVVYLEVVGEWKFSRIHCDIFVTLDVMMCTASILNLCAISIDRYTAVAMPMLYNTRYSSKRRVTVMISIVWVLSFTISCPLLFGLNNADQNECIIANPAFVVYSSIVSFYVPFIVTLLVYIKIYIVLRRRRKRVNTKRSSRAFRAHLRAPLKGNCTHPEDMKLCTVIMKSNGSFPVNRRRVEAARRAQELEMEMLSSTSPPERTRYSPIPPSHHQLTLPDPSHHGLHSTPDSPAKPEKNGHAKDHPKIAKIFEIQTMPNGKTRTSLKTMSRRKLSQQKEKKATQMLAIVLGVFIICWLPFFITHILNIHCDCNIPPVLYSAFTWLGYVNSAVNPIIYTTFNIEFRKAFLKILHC
T3 sequence (P31391 whole entry): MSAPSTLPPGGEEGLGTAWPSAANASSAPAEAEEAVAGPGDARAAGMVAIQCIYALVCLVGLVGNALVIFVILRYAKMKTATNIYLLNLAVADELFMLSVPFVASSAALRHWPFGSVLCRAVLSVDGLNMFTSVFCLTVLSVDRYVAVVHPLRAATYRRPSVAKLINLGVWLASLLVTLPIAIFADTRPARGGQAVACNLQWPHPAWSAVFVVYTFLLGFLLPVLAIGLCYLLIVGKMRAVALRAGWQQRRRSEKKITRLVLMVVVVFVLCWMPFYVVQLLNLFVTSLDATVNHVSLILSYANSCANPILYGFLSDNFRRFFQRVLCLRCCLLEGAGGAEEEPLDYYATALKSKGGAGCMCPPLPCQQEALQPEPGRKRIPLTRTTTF
T4 sequence (P35346 whole entry): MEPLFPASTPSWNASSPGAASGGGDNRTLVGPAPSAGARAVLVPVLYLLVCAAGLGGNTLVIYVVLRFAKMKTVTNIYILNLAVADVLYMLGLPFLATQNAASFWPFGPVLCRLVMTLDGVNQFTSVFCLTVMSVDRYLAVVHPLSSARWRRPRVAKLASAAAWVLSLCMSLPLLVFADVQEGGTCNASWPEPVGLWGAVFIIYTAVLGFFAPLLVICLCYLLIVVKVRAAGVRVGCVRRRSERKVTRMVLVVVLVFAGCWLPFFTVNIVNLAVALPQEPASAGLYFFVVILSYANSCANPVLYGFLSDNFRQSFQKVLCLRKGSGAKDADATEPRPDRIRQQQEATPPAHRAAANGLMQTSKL
T1 sequence (P30874 whole entry): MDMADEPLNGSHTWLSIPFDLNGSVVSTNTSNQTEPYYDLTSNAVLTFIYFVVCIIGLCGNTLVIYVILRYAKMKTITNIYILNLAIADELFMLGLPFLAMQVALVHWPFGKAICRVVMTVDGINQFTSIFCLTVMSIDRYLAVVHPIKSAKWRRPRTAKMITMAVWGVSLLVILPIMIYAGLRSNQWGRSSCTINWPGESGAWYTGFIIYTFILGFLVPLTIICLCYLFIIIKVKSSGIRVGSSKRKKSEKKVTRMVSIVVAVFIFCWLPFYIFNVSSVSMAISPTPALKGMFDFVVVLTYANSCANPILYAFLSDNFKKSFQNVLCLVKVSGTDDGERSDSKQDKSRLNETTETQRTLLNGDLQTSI
Method for hSSTR1: as §5, §6, §7
Method for hSSTR5: as §5, §6, §7

Take `CC(=O)N(CCC(=O)NC(CN[C@@H]1CCCCNC(=O)[C@H](Cc2ccc(F)cc2)NC(=O)[C@H]([C@@H](C)O)NC(=O)[C@H](CCCCN)NC(=O)[C@@H](Cc2c[nH]c3ccccc23)NC(=O)[C@H](Cc2ccccc2)NC(=O)[C@H](Cc2ccccc2)NC(=O)[C@H](CCCNC(=N)N)NC1=O)Cc1ccc(O)cc1)C[C@@H]1C[C@@H]2c3cccc4[nH]cc(c34)C[C@H]2N(C)C1` (single isomer, unassigned) [Compound 27, 3-[N-acetyl-N-(D-6-methyl-8β-ergolinylmethyl)]-aminopropionyl-Tyr-psi(CH2NH)-cyclo(DLys-Arg-Phe-Phe-DTrp-Lys-Thr-4FPhe)]: the inhibition constant (Ki) at hSSTR2 [1] stood at 0.32 ± 0.04 nM; on hSSTR3, 0.9 ± 0.1 nM; on hSSTR4, 7.3 ± 1.3 nM; at hSSTR5, 0.53 ± 0.1 nM; at hDRD2 [3], 277 ± 55.5 nM; at hSSTR1, 24.4 ± 12 nM. Besides, the Emax on hDRD2 [2] is 86.3 ± 8%.

For `C[C@@H](O)[C@@H]1NC(=O)[C@H](CCCCN)NC(=O)[C@@H](Cc2c[nH]c3ccccc23)NC(=O)[C@H](Cc2ccncc2)NC(=O)[C@H](Cc2ccccc2)NC(=O)[C@H](CCCNC(=N)N)NC(=O)[C@H](NC[C@H](CCCCNC(=O)CSC[C@@H]2C[C@@H]3c4cccc5[nH]cc(c45)C[C@H]3N(C)C2)NC(=O)CSC[C@@H]2C[C@@H]3c4cccc5[nH]cc(c45)C[C@H]3N(C)C2)CCCCNC(=O)[C@H](Cc2ccc(O)cc2)NC1=O` [Compound 8, Dop1-Lys(Dop1)-psi(CH2NH)-cyclo(DLys-Arg-Phe-4Pal-DTrp-Lys-Thr-Tyr)], on hSSTR2 [4] (receptor not named), the “improvement in %Emax over Reference Compound C” value is on record as “statistically significant improvement in %Emax”. The Ki worked out at 0.21 ± 0.08 nM on hSSTR2 [1] (setting [5]); 7.5 ± 0.3 nM on hSSTR3; 60.7 ± 15.7 nM on hSSTR4; 1.49 ± 0.3 nM on hSSTR5; 113 ± 35 nM on hDRD2 [3] (setting [6]); 106 ± 7.9 nM at hSSTR1 (setting [7]). Moreover, the maximum response (Emax) on hDRD2 [2] came to 94.7 ± 0.8%.

For the compound `C[C@@H](O)[C@@H]1NC(=O)[C@H](CCCCN)NC(=O)[C@@H](Cc2c[nH]c3ccccc23)NC(=O)[C@H](Cc2ccncc2)NC(=O)[C@H](Cc2ccccc2)NC(=O)[C@H](CCCNC(=N)N)NC(=O)[C@H](NC[C@H](CCCCNC(=O)CSC[C@@H]2C[C@@H]3c4cccc5[nH]cc(c45)C[C@H]3N(C)C2)NC(=O)CSC[C@@H]2C[C@@H]3c4cccc5[nH]cc(c45)C[C@H]3N(C)C2)CCCCNC(=O)[C@H](Cc2ccccc2)NC1=O` [Compound 9, Dop1-Lys(Dop1)-psi(CH2NH)-cyclo(DLys-Arg-Phe-4Pal-DTrp-Lys-Thr-Phe)], at hSSTR2 [4] (receptor not named), the “improvement in %Emax over Reference Compound C” value is “statistically significant improvement in %Emax”. Also, the Ki worked out at 0.13 ± 0.06 nM at hSSTR2 [1] (setting [5]); 4 ± 0.5 nM at hSSTR3; 24 ± 3.6 nM on hSSTR4; 1.54 ± 0.3 nM on hSSTR5; 39.2 ± 8.3 nM at hDRD2 [3] (setting [6]); 41.9 ± 21.1 nM on hSSTR1 (setting [7]). Also, at hDRD2 [2], the maximum response (Emax) came to 92.8 ± 3.8%.

Turning to `C[C@@H](O)[C@@H]1NC(=O)[C@H](CCCCN)NC(=O)[C@@H](Cc2c[nH]c3ccccc23)NC(=O)[C@H](Cc2ccncc2)NC(=O)[C@H](Cc2ccccc2)NC(=O)[C@H](CCCNC(=N)N)NC(=O)[C@H](N(CCSC[C@@H]2C[C@@H]3c4cccc5[nH]cc(c45)C[C@H]3N(C)C2)CCSC[C@@H]2C[C@@H]3c4cccc5[nH]cc(c45)C[C@H]3N(C)C2)CCCCNC(=O)[C@H](Cc2ccccc2)NC1=O` [Compound 29, bis[Dop1-psi(CH2N)]-cyclo(DLys-Arg-Phe-4Pal-DTrp-Lys-Thr-Phe)] (RF[4Pal][dW]KTF; linker N-C via X1), the EC50 on hSSTR2 [4] is 12.1 ± 0.7 nM; at hDRD2 [2] it was 254 ± 111 nM. Moreover, on hSSTR2 [4] (p value (Student's t-test, one-tailed) < 0.05, receptor not named), the “improvement in EC50 over Reference Compound A” value is listed as “statistically significant improvement in EC50”. Besides, the Ki was determined as 0.14 ± 0.02 nM at hSSTR2 [1], 2.37 nM at hSSTR5, 135 ± 66.1 nM at hDRD2 [3] and 26.7 nM on hSSTR1. Further, the Emax at hDRD2 [2] was 89 ± 4.5%.

Take `C[C@@H](O)[C@@H]1NC(=O)[C@H](CCCCN)NC(=O)[C@@H](Cc2c[nH]c3ccccc23)NC(=O)[C@H](Cc2ccccc2)NC(=O)[C@H](Cc2ccccc2)NC(=O)[C@H](CCCNC(=N)N)NC(=O)[C@H](NC[C@H](Cc2ccc(O)cc2)NC(=O)CSC[C@@H]2C[C@@H]3c4cccc5[nH]cc(c45)C[C@H]3N(C)C2)CCCCNC(=O)[C@H](Cc2ccccc2)NC1=O` [Compound 32, Dop1-Tyr-psi(CH2NH)-cyclo(DLys-Arg-Phe-Phe-DTrp-Lys-Thr-Phe)]: the EC50 at hSSTR2 [4] was 13.6 ± 3.4 nM; at hDRD2 [2], 35.6 ± 2.4 nM. Further, the “improvement in EC50 and/or %Emax over Reference Compound B” value at hSSTR2 [4] (receptor not named) was “statistically significant improvement in EC50 and/or %Emax”. Moreover, the Ki at hSSTR2 [1] stood at 0.28 ± 0.07 nM; at hSSTR5, 1.58 nM; at hDRD2 [3] it was 44 ± 1 nM; at hSSTR1, 5.3 ± 2.9 nM. For the same compound, the Emax on hDRD2 [2] was 102 ± 12.8%.

On to `C[C@@H](O)[C@@H]1NC(=O)[C@H](CCCCN)NC(=O)[C@@H](Cc2c[nH]c3ccccc23)NC(=O)[C@H](Cc2ccccc2)NC(=O)[C@H](Cc2ccccc2)NC(=O)[C@H](CCCNC(=N)N)NC(=O)[C@H](NC[C@H](Cc2ccc(O)cc2)NC(=O)CSC[C@@H]2C[C@@H]3c4cccc5[nH]cc(c45)C[C@H]3N(C)C2)CCCCNC(=O)[C@H](Cc2ccc(O)cc2)NC1=O` [Compound 33, Dop1-Tyr-psi(CH2NH)-cyclo(DLys-Arg-Phe-Phe-DTrp-Lys-Thr-Tyr)], for which the EC50 on hSSTR2 [4] was 13.8 ± 5 nM; on hDRD2 [2] it was 51.8 ± 20.6 nM. Also, at hSSTR2 [4] (receptor not named), the “improvement in EC50 and/or %Emax over Reference Compound B” value is listed as “statistically significant improvement in EC50 and/or %Emax”. For the same compound, the Ki on hSSTR2 [1] was found to be 0.24 ± 0.1 nM; at hSSTR5, 0.82 ± 0.4 nM; at hDRD2 [3] it was 15 ± 2.6 nM; on hSSTR1 it was 10.4 ± 3.2 nM. For the same compound, on hDRD2 [2], the maximal effect (Emax) was 102 ± 12.5%.

The record behind these values is patent EP2914280B1, “SOMATOSTATIN-DOPAMINE CHIMERIC ANALOGS” (IPSEN PHARMA S.A.S., priority 2012, dated 2014).
